Experimental data: PubChem BioAssay AID276 (DTP/NCI, 2004)
Where “and” joins values, the source holds several entries; their conditions need not be identical. Equal values may be shown once. Toxic doses and inconclusive results are not listed. Rule for the calls: active = survival T/C of 150% or more; inactive = T/C below 125% in these data.

System: B6C3F1 mice, Lewis lung carcinoma iv, survival T/C
Experiment: NCI In Vivo Anticancer Drug Screen. Data for tumor model Lewis Lung Carcinoma (intravenous) in B6C3F1 mice
Conditions: endpoint: median survival time, higher = longer survival
Description: The antitumor activity of compounds was measured in mice bearing transplantable tumors. Survival or tumor size were measured and the results are expressed as the measurement made in the treated group (T) divided by the measurement made in the vehicle treated control group (C). The tumor model used in this assay is Lewis Lung Carcinoma (intravenous) in B6C3F1 mice

[1] = dose: 50.0 mg/kg/injection, schedule: Q01DX009 (ip), vehicle: saline with Tween-80
[2] = dose: 100.0 mg/kg/injection, schedule: Q01DX009 (ip), vehicle: saline with Tween-80
[3] = dose: 200.0 mg/kg/injection, schedule: Q01DX009 (ip), vehicle: saline with Tween-80
[4] = dose: 400.0 mg/kg/injection, schedule: Q01DX009 (ip), vehicle: saline with Tween-80
[5] = dose: 25.0 mg/kg/injection, schedule: Q01DX009 (ip), vehicle: saline with Tween-80
[6] = dose: 6.25 mg/kg/injection, schedule: Q01DX009 (ip), vehicle: saline with Tween-80
[7] = dose: 12.5 mg/kg/injection, schedule: Q01DX009 (ip), vehicle: saline with Tween-80
[8] = dose: 25.0 mg/kg/injection, schedule: Q01DX009 (ip), vehicle: Klucel (hydroxypropylcellulose) (HPC)
[9] = dose: 50.0 mg/kg/injection, schedule: Q01DX009 (ip), vehicle: Klucel (hydroxypropylcellulose) (HPC)

Measured: T/C

CS(=O)(=O)Nc1ccc(C(=O)CCN2CCCCCC2)cc1
inactive: dose: 25.0 mg/kg/injection, schedule: Q01DX009 (ip), vehicle: suspension in saline 95 % of control | dose: 50.0 mg/kg/injection, schedule: Q01DX009 (ip), vehicle: suspension in saline 100 % of control | dose: 100.0 mg/kg/injection, schedule: Q01DX009 (ip), vehicle: suspension in saline 105 % of control | dose: 200.0 mg/kg/injection, schedule: Q01DX009 (ip), vehicle: suspension in saline 100 % of control | dose: 400.0 mg/kg/injection, schedule: Q01DX009 (ip), vehicle: suspension in saline 102 % of control

CC1=C[S+](c2ccccc2)c2cccc3cc4ccccc4c1c23 (stereo not drawn)
inactive: dose: 0.12 mg/kg/injection, schedule: Q01DX009 (ip), vehicle: saline with Tween-80 106 % of control | dose: 0.25 mg/kg/injection, schedule: Q01DX009 (ip), vehicle: saline with Tween-80 113 % of control | dose: 0.5 mg/kg/injection, schedule: Q01DX009 (ip), vehicle: saline with Tween-80 95 % of control | dose: 1.0 mg/kg/injection, schedule: Q01DX009 (ip), vehicle: saline with Tween-80 100 % of control | dose: 2.0 mg/kg/injection, schedule: Q01DX009 (ip), vehicle: saline with Tween-80 106 % of control | dose: 4.0 mg/kg/injection, schedule: Q01DX009 (ip), vehicle: saline with Tween-80 101 % of control

CCCCCCCCCCCCCCC/C([O-])=N/[N+](C)(C)CC(C)O (stereo not drawn)
inactive: dose: 25.0 mg/kg/injection, schedule: Q01DX001 (ip), vehicle: saline 91 % of control | dose: 50.0 mg/kg/injection, schedule: Q01DX001 (ip), vehicle: saline 88 % of control | dose: 100.0 mg/kg/injection, schedule: Q01DX001 (ip), vehicle: saline 87 % of control | dose: 200.0 mg/kg/injection, schedule: Q01DX001 (ip), vehicle: saline 95 % of control

CCCCCCCCCCCC(=O)NC1CC(O[C@H]2C[C@](O)(C(=O)CO)Cc3c(O)c4c(c(O)c32)C(=O)c2c(OC)cccc2C4=O)OC(C)C1O (stereo partly drawn)
inactive: dose: 6.25 mg/kg/injection, schedule: Q01DX009 (ip), vehicle: distilled water + Tween-80 96 % of control | dose: 12.5 mg/kg/injection, schedule: Q01DX009 (ip), vehicle: distilled water + Tween-80 100 % of control | dose: 25.0 mg/kg/injection, schedule: Q01DX009 (ip), vehicle: distilled water + Tween-80 102 % of control | dose: 50.0 mg/kg/injection, schedule: Q01DX009 (ip), vehicle: distilled water + Tween-80 119 % of control

CCCCCC#CC1OC12CCCCC2 (stereo not drawn)
inactive: [1] 102 % of control | [2] 100 % of control | [3] 88 % of control | [4] 91 % of control

Cc1cc(N)c2ccccc2[n+]1CCCCCCCCCC[n+]1c(C)cc(N)c2ccccc21
inactive: dose: 0.12 mg/kg/injection, schedule: Q01DX026 (ip), vehicle: dextrose 93 % of control | dose: 0.25 mg/kg/injection, schedule: Q01DX026 (ip), vehicle: dextrose 104 % of control | dose: 0.5 mg/kg/injection, schedule: Q01DX026 (ip), vehicle: dextrose 96 % of control | dose: 0.75 mg/kg/injection, schedule: Q01DX009 (ip), vehicle: dextrose 101 % of control | dose: 1.0 mg/kg/injection, schedule: Q01DX026 (ip), vehicle: dextrose 99 % of control | dose: 1.5 mg/kg/injection, schedule: Q01DX009 (ip), vehicle: dextrose 95 % of control | dose: 2.0 mg/kg/injection, schedule: Q01DX026 (ip), vehicle: dextrose 103 % of control | dose: 3.0 mg/kg/injection, schedule: Q01DX009 (ip), vehicle: dextrose 104 % of control

Nc1nc(-c2ccccc2)c(Br)c(=O)[nH]1
inactive: [5] 114 % of control | [1] 107 % of control | [2] 110 % of control | [3] 92 % of control and 121 % of control | [4] 100 % of control and 118 % of control | dose: 800.0 mg/kg/injection, schedule: Q01DX009 (ip), vehicle: saline with Tween-80 100 % of control

O=Cc1c(O)c2ccccc2[nH]c1=O
inactive: [6] 107 % of control | [7] 105 % of control | [5] 113 % of control | [1] 107 % of control | [2] 116 % of control

CCCCCNc1ncnc2c(C)[nH]nc12
inactive: [8] 103 % of control | [9] 94 % of control | dose: 100.0 mg/kg/injection, schedule: Q01DX009 (ip), vehicle: Klucel (hydroxypropylcellulose) (HPC) 108 % of control

CCCCCC[Se][Se]CCCCCC
inactive: dose: 1.56 mg/kg/injection, schedule: Q01DX009 (ip), vehicle: Klucel (hydroxypropylcellulose) (HPC) 97 % of control | dose: 3.12 mg/kg/injection, schedule: Q01DX009 (ip), vehicle: Klucel (hydroxypropylcellulose) (HPC) 105 % of control | dose: 6.25 mg/kg/injection, schedule: Q01DX009 (ip), vehicle: Klucel (hydroxypropylcellulose) (HPC) 100 % of control | dose: 12.5 mg/kg/injection, schedule: Q01DX009 (ip), vehicle: Klucel (hydroxypropylcellulose) (HPC) 95 % of control

CC(=O)OC1(C)CC(C)C(=O)C(C(O)CC2CC(=O)NC(=O)C2)C1 (stereo not drawn)
inactive: dose: 15.6 micrograms/kg/injection, schedule: Q01DX009 (ip), vehicle: saline 96 % of control | dose: 31.3 micrograms/kg/injection, schedule: Q01DX009 (ip), vehicle: saline 95 % of control | dose: 62.5 micrograms/kg/injection, schedule: Q01DX009 (ip), vehicle: saline 100 % of control | dose: 125.0 micrograms/kg/injection, schedule: Q01DX009 (ip), vehicle: saline 100 % of control | dose: 250.0 micrograms/kg/injection, schedule: Q01DX009 (ip), vehicle: saline 107 % of control

CNC(=O)n1c(N)nc(-c2ccccc2)c1-c1ccccc1
inactive: [6] 102 % of control | [7] 103 % of control | [5] 103 % of control | [1] 102 % of control

CNC(=O)Oc1ccc[nH]c1=O
inactive: dose: 16.0 mg/kg/injection, schedule: Q01DX009 (ip), vehicle: saline with Tween-80 101 % of control | dose: 32.0 mg/kg/injection, schedule: Q01DX009 (ip), vehicle: saline with Tween-80 103 % of control | dose: 64.0 mg/kg/injection, schedule: Q01DX009 (ip), vehicle: saline with Tween-80 104 % of control | dose: 128.0 mg/kg/injection, schedule: Q01DX009 (ip), vehicle: saline with Tween-80 90 % of control | dose: 256.0 mg/kg/injection, schedule: Q01DX009 (ip), vehicle: saline with Tween-80 94 % of control

CCCCOCN(COCCCC)C(C)Cc1ccccc1 (stereo not drawn)
inactive: [7] 96 % of control | [5] 107 % of control | [1] 104 % of control | [2] 92 % of control | [3] 89 % of control

O=C(CN1CCOCC1)Nc1nc(-c2ccc(Cl)cc2)cs1
inactive: dose: 50.0 mg/kg/injection, schedule: Q01DX009 (ip), vehicle: DMSO 91 % of control | dose: 100.0 mg/kg/injection, schedule: Q01DX009 (ip), vehicle: DMSO 92 % of control | dose: 200.0 mg/kg/injection, schedule: Q01DX009 (ip), vehicle: DMSO 103 % of control | dose: 400.0 mg/kg/injection, schedule: Q01DX009 (ip), vehicle: DMSO 100 % of control | dose: 800.0 mg/kg/injection, schedule: Q01DX009 (ip), vehicle: DMSO 95 % of control

CC1(C)CC23C4COC(=O)C2CCC1C3CC4=O (stereo not drawn)
inactive: dose: 3.0 mg/kg/injection, schedule: Q01DX009 (ip), vehicle: DMSO 103 % of control | dose: 6.0 mg/kg/injection, schedule: Q01DX009 (ip), vehicle: DMSO 97 % of control and 99 % of control | dose: 12.0 mg/kg/injection, schedule: Q01DX009 (ip), vehicle: DMSO 100 % of control and 102 % of control | dose: 24.0 mg/kg/injection, schedule: Q01DX009 (ip), vehicle: DMSO 95 % of control and 124 % of control | dose: 48.0 mg/kg/injection, schedule: Q01DX009 (ip), vehicle: DMSO 103 % of control and 106 % of control | dose: 96.0 mg/kg/injection, schedule: Q01DX009 (ip), vehicle: DMSO 102 % of control | dose: 192.0 mg/kg/injection, schedule: Q01DX009 (ip), vehicle: DMSO 98 % of control

COc1ccc(S(=O)(=O)N=N/C=C2\C=CC=CN2O)cc1OC
inactive: dose: 3.12 mg/kg/injection, schedule: Q01DX009 (ip), vehicle: saline with Tween-80 92 % of control | [6] 100 % of control | [7] 98 % of control | [5] 93 % of control | [1] 106 % of control

CC(C)NC(=O)N(CCCCBr)N=O
inactive: dose: 12.0 mg/kg/injection, schedule: Q01DX009 (ip), vehicle: Klucel (hydroxypropylcellulose) (HPC) 114 % of control | [8] 98 % of control | [9] 116 % of control
